Patent US20230270753A1, “COMBINATIONS OF GABAA ALPHA 5 AGONISTS AND SV2A INHIBITORS AND METHODS OF USING IN THE TREATMENT OF COGNITIVE IMPAIRMENT” (AGENEBIO, INC., priority 2020, published 2023)

Tested on: aged-impaired (AI) rats
Assay: Radial Arm Maze task, one-hour delay, levetiracetam (Example 1)
Format: in vivo, rat
Method: The effects of levetiracetam on the spatial memory retention of aged-impaired (AI) rats were assessed in a Radial Arm Maze (RAM) behavioral task using vehicle control and five different dosage levels of levetiracetam (1.25 mg/kg/day, 2.5 mg/kg/day, 5 mg/kg/day, 10 mg/kg/day and 20 mg/kg/day). RAM behavioral tasks were performed on ten AI rats. All six treatment conditions were tested on all ten rats, as described above for the MWM test. The RAM apparatus used consisted of eight equidistantly spaced arms. An elevated maze arm (7 cm width×75 cm length) projected from each facet of an octagonal center platform (30 cm diameter, 51.5 cm height). […] A food well (4 cm diameter, 2 cm deep) was located at the distal end of each arm. Froot Loops' (Kellogg Company) were used as rewards. […] Numerous extra maze cues surrounding the apparatus were also provided. The AI rats were initially subjected to a pre-training test (Chappell et al. Neuropharmacology 37: 481-487, 1998). […] In the habituation phase, rats were familiarized to the maze for an 8-minute session on four consecutive days. […] To counterbalance any potential bias, drug effect was assessed using ascending-descending dose series, i.e., the dose series was given first in an ascending order and then repeated in a descending order. […]

CC[C@@H](C(N)=O)N1CCCC1=O [levetiracetam, (2S)-2-(2-oxopyrrolidin-1-yl)butanamide]
effective doses of levetiracetam in the animal model (radial arm maze errors) (AI rats, levetiracetam on its own): 5 to 10 mg/kg | reduction of the number of errors in the radial arm maze (levetiracetam on its own at 1.25 mg/kg or 2.5 mg/kg): not at 1.25 mg/kg or 2.5 mg/kg
